Measurements taken from publication PMC7887271, “Fast acting allosteric phosphofructokinase inhibitors block trypanosome glycolysis and cure acute African trypanosomiasis in mice” (Nature Communications, 2021).

Key:
[1] = target: T1, hPFK-M (Homo sapiens, UniProt P08237); assay: ALDO/G3PDH/TIM linked enzyme assay, human PFK-M; type: biochemical; settings: aldolase/TIM linked assay, 25 °C; highest concentration 100 µM
T1 construct: made in house; host or cells: PFK-deficient Saccharomyces cerevisiae
T1 sequence (P08237 1-780): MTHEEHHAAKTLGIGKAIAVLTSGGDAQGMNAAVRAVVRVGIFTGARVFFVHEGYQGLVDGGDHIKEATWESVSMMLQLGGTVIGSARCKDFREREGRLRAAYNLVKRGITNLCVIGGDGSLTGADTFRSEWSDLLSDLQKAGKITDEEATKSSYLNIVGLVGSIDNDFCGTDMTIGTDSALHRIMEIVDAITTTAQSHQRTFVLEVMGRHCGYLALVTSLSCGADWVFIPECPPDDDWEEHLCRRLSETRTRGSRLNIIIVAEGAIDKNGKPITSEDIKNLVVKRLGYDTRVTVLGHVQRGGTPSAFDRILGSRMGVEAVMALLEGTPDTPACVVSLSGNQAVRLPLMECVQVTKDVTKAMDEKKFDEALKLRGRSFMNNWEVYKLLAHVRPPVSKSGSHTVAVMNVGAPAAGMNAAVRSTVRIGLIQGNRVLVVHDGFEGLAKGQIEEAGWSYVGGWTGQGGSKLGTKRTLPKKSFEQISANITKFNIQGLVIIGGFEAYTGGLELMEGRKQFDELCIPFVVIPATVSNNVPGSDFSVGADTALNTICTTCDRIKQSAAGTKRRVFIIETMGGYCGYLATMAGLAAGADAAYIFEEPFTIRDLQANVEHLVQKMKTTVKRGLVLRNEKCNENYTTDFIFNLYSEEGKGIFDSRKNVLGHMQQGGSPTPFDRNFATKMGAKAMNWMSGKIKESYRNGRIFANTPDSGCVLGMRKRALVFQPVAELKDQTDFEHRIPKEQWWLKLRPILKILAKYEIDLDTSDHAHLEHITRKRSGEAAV
Procedure: (§1) Enzyme activity was measured using an aldolase/TIM linked assay at 25 °C. […] Experiments were carried out in duplicate. Data are presented as mean values ± standard deviation. […] Source data are provided as a Source Data File. b Kill time of CTCB-405 compared with existing HAT drugs in the clinic. […] Over 99% of trypanosomes were killed in under 30 min compared with much slower killing rates for the other drugs. The points on the graph for CTCB-405 were determined from two independent biological replicate experiments with each time point measured twice (using duplicate technical replicates). The ESD for each point on the graph is between 0.7 and 1.4%. For drugs in clinical use each point on the graph is the average of two technical replicates from one experiment (with a maximum difference of 7.8% for any of the points). Source data are provided as a Source Data File.
(§2) In the PFK/PYK/LDH assay, the linked PYK activity acts to convert the ADP produced by PFK back to ATP. As ATP is an inhibitor of human PFK (but not TbPFK) at concentrations higher than ~0.5 mM the regeneration of ATP is likely to affect the assay readout. […] TIM interconverts GA3P and DHAP, and DHAP is reduced to glycerol 3-phosphate by G3PD, alongside the oxidation of NADH to NAD^+, which was measured by observing the change in UV absorbance at 340 nm for 10 minutes at 25° C using a Spectramax© M5 Multimode plate reader. […]

[2] = target: T2, hPFK-P (Homo sapiens, UniProt Q01813); assay: ALDO/G3PDH/TIM linked enzyme assay, human PFK-P; type: biochemical; settings: aldolase/TIM linked assay, 25 °C; highest concentration 100 µM
T2 construct: made in house; host or cells: PFK-deficient Saccharomyces cerevisiae
T2 sequence (Q01813 1-784): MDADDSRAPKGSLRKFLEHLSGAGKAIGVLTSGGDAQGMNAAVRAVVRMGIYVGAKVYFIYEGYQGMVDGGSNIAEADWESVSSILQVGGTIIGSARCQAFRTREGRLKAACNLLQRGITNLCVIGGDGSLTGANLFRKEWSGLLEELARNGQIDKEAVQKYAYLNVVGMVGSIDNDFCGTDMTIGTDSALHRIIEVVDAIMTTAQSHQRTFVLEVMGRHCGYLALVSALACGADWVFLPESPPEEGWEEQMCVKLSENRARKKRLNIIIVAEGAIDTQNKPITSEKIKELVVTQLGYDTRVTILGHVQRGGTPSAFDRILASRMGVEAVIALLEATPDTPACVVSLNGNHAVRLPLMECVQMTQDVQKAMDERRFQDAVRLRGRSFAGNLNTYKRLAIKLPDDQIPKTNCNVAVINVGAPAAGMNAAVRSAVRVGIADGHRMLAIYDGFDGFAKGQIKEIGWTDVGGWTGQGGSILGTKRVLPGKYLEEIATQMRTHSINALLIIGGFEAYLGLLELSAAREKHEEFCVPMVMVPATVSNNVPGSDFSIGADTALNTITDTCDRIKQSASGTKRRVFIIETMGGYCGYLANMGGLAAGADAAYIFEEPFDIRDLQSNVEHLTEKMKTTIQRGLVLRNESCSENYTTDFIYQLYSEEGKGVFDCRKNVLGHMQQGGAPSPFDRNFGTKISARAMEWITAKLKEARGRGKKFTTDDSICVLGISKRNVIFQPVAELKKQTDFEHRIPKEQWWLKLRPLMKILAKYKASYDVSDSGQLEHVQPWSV
Procedure: as §1, §2

[3] = Human hepatocytes intrinsic clearance; type: in vitro ADME
Text: Methods are described in Supplementary Methods 5 and 6. Enzyme assay results are means ± SD in multiple assays. ADME results are averages of n = 2 or 3 measurements in individual assays.

## CN(C)CCn1ccc2c(ccn2Cc2ccc(Cl)c(Cl)c2)c1=O [CTCB-405, 1-[(3,4-Dichlorophenyl)methyl]-5-[2-(dimethylamino)ethyl] pyrrolo[3,2-c]pyridin-4-one]
[1]
  inhibition of hPFK-M: no significant inhibition
[2]
  inhibition of hPFK-P: no significant inhibition
[3]
  Human hepatocytes Clint: 2.3 µL min^−1 per 10^6 cells
